Results published in patent publication US5428059A, “Benzopyran derivatives and an anti-allergic agent possessing the same as the active ingredient” (Dainippon Ink & Chemicals, Inc., priority 1991, dated 1995).

Tested on: Hartley-type male guinea pigs
Assay: Guinea Pig Homogeneous Skin Passive Anaphylaxis Assay (PCA reaction)
Type: in vivo, guinea pig (Hartley-type)
Conditions: Cavia porcellus, 10 mg/kg oral, 48 h after sensitization, read-out: Allergic reaction inhibitory index (%)
Procedure, shortened: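 Inhibition % is derived from Evans Blue leakage area (mm^2, product of spot diameters) read 30 min after i.v. OVA/dye challenge. Beforehand, male Hartley guinea pigs (250~300 g) were passively sensitized intradermally with 120-fold-diluted anti-OVA serum and, after 48 h, received test compound 10 mg/kg p.o.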

SMILES	inhibition in vivo at 10 mg/kg [%]
COc1ccc2oc(=O)c(O)c(O)c2c1 [Compound 272, 3,4-(dihydroxy)-6-(methoxy)-2H-1-benzopyran-2-one]	30
CCCCCCCCCCOc1ccc2c(O)c(OC)c(=O)oc2c1 [Compound 62, 3-(methoxy)-4-hydroxy-7-(decyloxy)-2H-1-benzopyran-2-one]	43
CCCCCCCCCCOc1c(O)c2cc(OC)ccc2oc1=O [Compound 274]	35
O=C(Oc1c(O)c2c(O)cccc2oc1=O)c1ccccc1 [Compound 176, 3-(benzoyloxy)-4,5-dihydroxy-2H-1-benzopyran-2-one]	34
CCCCCCCCCCOc1cccc2c(O)c(OC(C)C)c(=O)oc12 [Compound 147, 3-(isopropoxy)-4-hydroxy-8-(decyloxy)-2H-1-benzopyran-2-one]	30
CCCCCCCCCCOc1c(OC(C)C)c2cccc(OC/C=C(\C)CCC=C(C)C)c2oc1=O [Compound 164, 3-(decyloxy)-4-(isopropoxy)-8-(geranyloxy)-2H-1-benzopyran-2-one]	33
CC(=O)Oc1c(OC(=O)c2ccccc2)c(=O)oc2cccc(O)c12 [Compound 180, 3-(benzoyloxy)-4-(acetoxy)-5-hydroxy-2H-1-benzopyran-2-one]	30
O=C(Oc1c(O)c2cccc(O)c2oc1=O)c1ccccc1 [Compound 92, 3-(benzoyloxy)-4,8-dihydroxy-2H-1-benzopyran-2-one]	33
COc1c(O)c(=O)oc2cc(OC(C)C)ccc12 [Compound 49, 3-hydroxy-4-(methoxy)-7-(isopropoxy)-2H-1-benzopyran-2-one]	36
CCCCCCCCCCOc1c(OC)c(=O)oc2cc(OC)ccc12 [Compound 36, 3,7-(dimethoxy)-4-(decyloxy)-2H-1-benzopyran-2-one]	30
CC(C)=CCC/C(C)=C/COc1ccc2c(O)c(O)c(=O)oc2c1 [Compound 75, 3,4-(hydroxy)-7-(geranyloxy)-2H-1-benzopyran-2-one]	45
CC(=O)Oc1c(OC/C=C(\C)CCC=C(C)C)c(=O)oc2cc(O)ccc12 [Compound 21, 3-(geranyloxy)-4-(acetoxy)-7-hydroxy-2H-1-benzopyran-2-one]	33
CCCCCCCCCCOc1cccc2oc(=O)c(O)c(OC(C)=O)c12 [Compound 231, 3-hydroxy-4-(acetoxy)-5-(decyloxy)-2H-1-benzopyran-2-one]	31
COc1ccc2c(O)c(OC(=O)c3ccccc3)c(=O)oc2c1 [Compound 27, 3-(benzoyloxy)-4-hydroxy-7-(methoxy)-2H-1-benzopyran-2-one]	40
CC(C)=CCC/C(C)=C/COc1c(O)c2cccc(OC(C)C)c2oc1=O [Compound 138, 3-(geranyloxy)-4-hydroxy-8-(isopropoxy)-2H-1-benzopyran-2-one]	35
CC(C)Oc1ccc2c(O)c(OC(=O)c3ccccc3)c(=O)oc2c1 [Compound 44, 3-(benzoyloxy)-4-(hydroxy)-7-(isopropoxy)-2H-1-benzopyran-2-one]	37
COc1ccc2c(OC)c(O)c(=O)oc2c1 [Compound 33, 3-hydroxy-4,7-(dimethoxy)-2H-1-benzopyran-2-one]	33
CC(=O)Oc1c(OC/C=C(\C)CCC=C(C)C)c(=O)oc2c(O)cccc12 [Compound 104, 3-(geranyloxy)-4-(acetoxy)-8-hydroxy-2H-1-benzopyran-2-one]	32
CCCCCCCCCCOc1ccc2oc(=O)c(OC(C)=O)c(O)c2c1 [Compound 279, 3-(acetoxy)-4-(hydroxy)-6-(decyloxy)-2H-1-benzopyran-2-one]	30
CC(C)=CCC/C(C)=C/COc1c(OC(C)C)c2cccc(OC(C)C)c2oc1=O [Compound 140, 3-(geranyloxy)-4,8-(diisopropoxy)-2H-1-benzopyran-2-one]	30
COc1c(OC/C=C(\C)CCC=C(C)C)c2ccc(OC(C)C)cc2oc1=O [Compound 56, 3-(methoxy)-4-(geranyloxy)-7-(isopropoxy)-2H-1-benzopyran-2-one]	31
CCCCCCCCCCOc1ccc2c(OC/C=C(\C)CCC=C(C)C)c(OC(C)C)c(=O)oc2c1 [Compound 72, 3-(isopropoxy)-4-(geranyloxy)-7-(decyloxy)-2H-1-benzopyran-2-one]	34
COc1c(OC/C=C(\C)CCC=C(C)C)c(=O)oc2c(O)cccc12 [Compound 107, 3-(geranyloxy)-4-(methoxy)-8-hydroxy-2H-1-benzopyran-2-one]	33
COc1ccc2c(O)c(O)c(=O)oc2c1 [Compound 28, 3,4-dihydroxy-7-(methoxy)-2H-1-benzopyran-2-one]	53

SMILES	inhibition in vivo at 10 mg/kg [%]
CCCCCCCCCCOc1c(O)c2cccc(OC(C)C)c2oc1=O [Compound 133, 3-(decyloxy)-4-hydroxy-8-(isopropoxy)-2H-1-benzopyran-2-one]	36
COc1c(OC/C=C(\C)CCC=C(C)C)c(=O)oc2c(OC/C=C(\C)CCC=C(C)C)cccc12 [Compound 171, 3,8-(digeranyloxy)-4-(methoxy)-2H-1-benzopyran-2-one]	33
CC(C)Oc1cccc2c(O)c(O)c(=O)oc12 [Compound 130, 3,4-(dihydroxy)-8-(isopropoxy)-2H-1-benzopyran-2-one]	39
CCCCCCCCCCOc1ccc2c(OC)c(OC(=O)c3ccccc3)c(=O)oc2c1 [Compound 65, 3-(benzoyloxy)-4-(methoxy)-7-(decyloxy)-2H-1-benzopyran-2-one]	32
COc1c(OC(C)=O)c2cccc(O)c2oc1=O [Compound 101, 3-(methoxy)-4-(acetoxy)-8-hydroxy-2H-1-benzopyran-2-one]	30
COc1c(OC/C=C(\C)CCC=C(C)C)c(=O)oc2cc(O)ccc12 [Compound 24, 3-(geranyloxyl)-4-(methoxy)-7-hydroxy-2H-1-benzopyran-2-one]	33
CCCCOc1cccc2oc(=O)c(OC(=O)c3ccccc3)c(OC)c12 [Compound 228, 3-(benzoyloxy)-4-(methoxy)-5-(butoxy)-2H-1-benzopyran-2-one]	34
CCCCCCCCCCOc1ccc2c(OC/C=C(\C)CCC=C(C)C)c(O)c(=O)oc2c1 [Compound 68, 3-hydroxy-4-(geranyloxy)-7-(decyloxy)-2H-1-benzopyran-2-one]	32
CC(=O)Oc1c(O)c(=O)oc2cccc(OC(C)C)c12 [Compound 212, 3-hydroxy-4-(acetoxy)-5-(isopropoxy)-2H-1-benzopyran-2-one]	37
CC(=O)Oc1c(OC(=O)c2ccccc2)c(=O)oc2c(OC/C=C(\C)CCC=C(C)C)cccc12 [Compound 161, 3-(benzoyloxy)-4-(acetoxy)-8-(geranyloxy)-2H-1-benzopyran-2-one]	31
CC(C)=CCC/C(C)=C/COc1c(O)c(=O)oc2cccc(OC(C)C)c12 [Compound 220, 3-hydroxy-4-(geranyloxy)-5-(isopropoxy)-2H-1-benzopyran-2-one]	30
CC(C)=CCC/C(C)=C/COc1cccc2oc(=O)c(OC(=O)c3ccccc3)c(OC/C=C(\C)CCC=C(C)C)c12 [Compound 256, 3-(benzoyloxy)-4,5-(digeranyloxy)-2H-1-benzopyran-2-one]	30
CC(=O)Oc1c(OC(=O)c2ccccc2)c(=O)oc2cc(OC/C=C(\C)CCC=C(C)C)ccc12 [Compound 77, 3-(benzoyloxy)-4-(acetoxy)-7-(geranyloxy)-2H-1-benzopyran-2-one]	31
CCCCCCCCCCOc1c(O)c2c(OC(C)C)cccc2oc1=O [Compound 214, 3-(decyloxy)-4-hydroxy-5-(isopropoxy)-2H-1-benzopyran-2-one]	38
CCCCCCCCCCOc1c(OC)c(=O)oc2cccc(O)c12 [Compound 184, 3-(methoxy)-4-(decyloxy)-5-hydroxy-2H-1-benzopyran-2-one]	33
COc1cccc2c(OC(=O)c3ccccc3)c(OC(C)=O)c(=O)oc12 [Compound 114, 3-(acetoxy)-4-(benzoyloxy)-8-(methoxy)-2H-1-benzopyran-2-one]	31
COc1cccc2c(O)c(OC(=O)c3ccccc3)c(=O)oc12 [Compound 110, 3-(benzoyloxy)-4-hydroxy-8-(methoxy)-2H-1-benzopyran-2-one]	31
CC(C)=CCC/C(C)=C/COc1c(O)c2ccc(OC(C)C)cc2oc1=O [Compound 53, 3-(geranyloxy)-4-hydroxy-7-(isopropoxy)-2H-1-benzopyran-2-one]	38
CC(=O)Oc1c(OC(=O)c2ccccc2)c2cccc(O)c2oc1=O [Compound 96, 3-(acetoxy)-4-(benzoyloxy)-8-hydroxy-2H-1-benzopyran-2-one]	32
CCCCCCCCCCOc1ccc2c(OC(C)=O)c(O)c(=O)oc2c1 [Compound 60, 3-hydroxy-4-(acetoxy)-7-(decyloxy)-2H-1-benzopyran-2-one]	35
COc1cccc2c(OC(=O)c3ccccc3)c(OC/C=C(\C)CCC=C(C)C)c(=O)oc12 [Compound 122, 3-(geranyloxy)-4-(benzoyloxy)-8-(methoxy)-2H-1-benzopyran-2-one]	30
CCCCCCCCCCOc1ccc2c(OC(C)=O)c(OC(C)=O)c(=O)oc2c1 [Compound 61, 3,4-(diacetoxy)-7-(decyloxy)-2H-1-benzopyran-2-one]	30
CC(C)=CCC/C(C)=C/COc1c(O)c2c(O)cccc2oc1=O [Compound 187, 3-(geranyloxy)-4,5-(dihydroxy)-2H-1-benzopyran-2-one]	30
O=c1oc2ccc(O)cc2c(O)c1O [Compound 263, 3,4,6-trihydroxy-2H-1-benzopyran-2-one]	42
